The values below come from ChEMBL document CHEMBL5291721, “A preclinical secondary pharmacology resource illuminates target-adverse drug reaction associations of marketed drugs” (Nat Commun, 2023).

Some targets named below: D(1A) dopamine receptor (Homo sapiens, UniProt P21728); D(3) dopamine receptor (Homo sapiens, UniProt P35462); Histamine H3 receptor (Homo sapiens, UniProt Q9Y5N1); Mu-type opioid receptor (Homo sapiens, UniProt P35372).
For the next test, the target named is Bile salt export pump (Homo sapiens, UniProt O95342). In kind it is functional.
Sequence of Bile salt export pump (O95342 whole entry): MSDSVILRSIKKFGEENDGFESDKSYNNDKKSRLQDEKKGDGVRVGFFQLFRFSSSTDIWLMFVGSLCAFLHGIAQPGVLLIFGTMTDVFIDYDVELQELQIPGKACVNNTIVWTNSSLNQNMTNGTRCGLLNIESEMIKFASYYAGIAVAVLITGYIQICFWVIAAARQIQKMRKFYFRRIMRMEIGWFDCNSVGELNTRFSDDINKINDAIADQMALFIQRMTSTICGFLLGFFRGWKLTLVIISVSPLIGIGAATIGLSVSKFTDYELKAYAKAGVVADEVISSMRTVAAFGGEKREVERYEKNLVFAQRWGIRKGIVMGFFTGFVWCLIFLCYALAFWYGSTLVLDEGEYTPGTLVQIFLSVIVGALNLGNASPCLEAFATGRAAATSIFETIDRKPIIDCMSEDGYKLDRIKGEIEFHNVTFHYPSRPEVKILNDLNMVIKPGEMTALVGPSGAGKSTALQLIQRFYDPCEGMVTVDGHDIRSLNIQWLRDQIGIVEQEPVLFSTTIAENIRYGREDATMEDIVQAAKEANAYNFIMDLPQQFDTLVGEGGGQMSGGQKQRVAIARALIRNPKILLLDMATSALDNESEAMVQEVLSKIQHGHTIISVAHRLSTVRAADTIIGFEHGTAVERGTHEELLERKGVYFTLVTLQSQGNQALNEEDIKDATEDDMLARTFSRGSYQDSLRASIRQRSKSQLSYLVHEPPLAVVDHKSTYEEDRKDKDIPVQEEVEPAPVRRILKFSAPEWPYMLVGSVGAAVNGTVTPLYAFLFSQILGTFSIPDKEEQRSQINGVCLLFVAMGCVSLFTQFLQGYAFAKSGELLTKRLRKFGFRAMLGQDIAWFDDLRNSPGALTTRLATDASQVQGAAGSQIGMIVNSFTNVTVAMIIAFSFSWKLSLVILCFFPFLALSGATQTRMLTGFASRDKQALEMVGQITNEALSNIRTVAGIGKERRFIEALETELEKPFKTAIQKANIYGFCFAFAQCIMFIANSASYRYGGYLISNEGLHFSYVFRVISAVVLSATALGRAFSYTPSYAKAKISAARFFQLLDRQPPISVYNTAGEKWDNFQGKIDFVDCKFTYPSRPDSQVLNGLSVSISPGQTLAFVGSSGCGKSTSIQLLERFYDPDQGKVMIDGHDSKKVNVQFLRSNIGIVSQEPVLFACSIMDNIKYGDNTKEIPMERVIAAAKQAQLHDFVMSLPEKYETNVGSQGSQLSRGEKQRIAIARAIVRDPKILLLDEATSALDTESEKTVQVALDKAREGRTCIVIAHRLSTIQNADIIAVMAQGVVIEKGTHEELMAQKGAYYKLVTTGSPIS
In test [1] the target is Voltage-gated inwardly rectifying potassium channel KCNH2 (Homo sapiens, UniProt Q12809). In kind it is functional. The note with it: read-out: AC50.
Sequence of Voltage-gated inwardly rectifying potassium channel KCNH2 (Q12809 whole entry): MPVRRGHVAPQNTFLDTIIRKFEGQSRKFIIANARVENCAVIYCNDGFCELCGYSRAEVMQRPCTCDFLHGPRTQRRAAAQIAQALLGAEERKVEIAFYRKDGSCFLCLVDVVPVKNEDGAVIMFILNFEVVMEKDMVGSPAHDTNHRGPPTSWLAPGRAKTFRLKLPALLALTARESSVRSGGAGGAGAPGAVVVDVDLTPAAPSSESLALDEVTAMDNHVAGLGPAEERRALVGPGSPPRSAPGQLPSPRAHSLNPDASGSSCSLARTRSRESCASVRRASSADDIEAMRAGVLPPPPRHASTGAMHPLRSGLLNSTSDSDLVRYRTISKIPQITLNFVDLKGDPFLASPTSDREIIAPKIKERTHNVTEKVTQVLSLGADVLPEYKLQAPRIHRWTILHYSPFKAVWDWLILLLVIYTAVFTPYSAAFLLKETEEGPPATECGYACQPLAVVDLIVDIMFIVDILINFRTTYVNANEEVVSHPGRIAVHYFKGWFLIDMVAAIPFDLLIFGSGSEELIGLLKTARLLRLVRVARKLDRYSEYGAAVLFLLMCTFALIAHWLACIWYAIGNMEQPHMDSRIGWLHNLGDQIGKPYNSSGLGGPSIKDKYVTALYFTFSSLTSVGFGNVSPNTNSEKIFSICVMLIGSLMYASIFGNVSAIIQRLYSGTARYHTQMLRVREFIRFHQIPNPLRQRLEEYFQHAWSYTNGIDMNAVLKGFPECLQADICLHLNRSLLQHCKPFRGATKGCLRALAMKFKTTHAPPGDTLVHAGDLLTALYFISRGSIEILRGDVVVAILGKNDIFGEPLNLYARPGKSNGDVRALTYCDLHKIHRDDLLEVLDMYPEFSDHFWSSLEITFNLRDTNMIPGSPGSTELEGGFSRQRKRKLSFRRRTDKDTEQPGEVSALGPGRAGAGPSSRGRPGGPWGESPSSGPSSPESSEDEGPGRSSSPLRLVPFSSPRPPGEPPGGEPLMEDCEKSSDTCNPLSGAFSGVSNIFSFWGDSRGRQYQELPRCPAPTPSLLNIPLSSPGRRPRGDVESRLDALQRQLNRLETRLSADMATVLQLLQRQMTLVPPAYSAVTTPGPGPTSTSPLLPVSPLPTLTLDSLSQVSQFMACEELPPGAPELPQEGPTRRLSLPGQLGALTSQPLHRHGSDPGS
In another test the target is Acetylcholinesterase (Homo sapiens, UniProt P22303). It is filed as functional.
Sequence of Acetylcholinesterase (P22303 whole entry): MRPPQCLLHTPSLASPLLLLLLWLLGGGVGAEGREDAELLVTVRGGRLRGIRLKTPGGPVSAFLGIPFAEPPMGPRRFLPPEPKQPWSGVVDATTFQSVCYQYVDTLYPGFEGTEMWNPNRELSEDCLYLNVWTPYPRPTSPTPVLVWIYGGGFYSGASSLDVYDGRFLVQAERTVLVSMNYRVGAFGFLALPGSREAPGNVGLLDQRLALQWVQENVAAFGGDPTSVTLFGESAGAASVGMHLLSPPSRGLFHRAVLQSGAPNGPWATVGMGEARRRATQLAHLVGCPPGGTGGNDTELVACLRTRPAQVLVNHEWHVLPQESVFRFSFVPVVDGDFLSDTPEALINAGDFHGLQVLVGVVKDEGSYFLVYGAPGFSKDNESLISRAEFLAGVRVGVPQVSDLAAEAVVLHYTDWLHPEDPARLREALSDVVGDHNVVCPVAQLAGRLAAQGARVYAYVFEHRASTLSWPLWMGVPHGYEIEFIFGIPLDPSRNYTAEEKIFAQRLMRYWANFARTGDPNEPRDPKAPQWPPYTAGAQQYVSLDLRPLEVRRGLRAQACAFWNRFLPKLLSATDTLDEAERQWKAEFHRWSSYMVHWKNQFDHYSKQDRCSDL
For test [2], the target named is T1, Alpha-2A adrenergic receptor (Homo sapiens, UniProt P08913).
T1 sequence (P08913 whole entry): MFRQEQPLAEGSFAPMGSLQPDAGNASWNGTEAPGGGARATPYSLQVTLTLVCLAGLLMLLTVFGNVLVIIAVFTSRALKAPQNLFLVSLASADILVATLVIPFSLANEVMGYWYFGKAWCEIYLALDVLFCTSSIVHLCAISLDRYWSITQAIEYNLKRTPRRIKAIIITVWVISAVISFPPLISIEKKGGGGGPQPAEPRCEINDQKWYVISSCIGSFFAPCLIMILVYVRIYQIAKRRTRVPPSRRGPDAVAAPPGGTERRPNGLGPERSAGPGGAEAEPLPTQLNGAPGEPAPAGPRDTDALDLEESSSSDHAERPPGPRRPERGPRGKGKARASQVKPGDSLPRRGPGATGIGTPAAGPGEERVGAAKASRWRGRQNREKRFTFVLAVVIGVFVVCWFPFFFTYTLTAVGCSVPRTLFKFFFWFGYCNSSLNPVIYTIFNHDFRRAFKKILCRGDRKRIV

For test [3], the target named is T2, Muscarinic acetylcholine receptor M2 (Homo sapiens, UniProt P08172).
T2 sequence (P08172 whole entry): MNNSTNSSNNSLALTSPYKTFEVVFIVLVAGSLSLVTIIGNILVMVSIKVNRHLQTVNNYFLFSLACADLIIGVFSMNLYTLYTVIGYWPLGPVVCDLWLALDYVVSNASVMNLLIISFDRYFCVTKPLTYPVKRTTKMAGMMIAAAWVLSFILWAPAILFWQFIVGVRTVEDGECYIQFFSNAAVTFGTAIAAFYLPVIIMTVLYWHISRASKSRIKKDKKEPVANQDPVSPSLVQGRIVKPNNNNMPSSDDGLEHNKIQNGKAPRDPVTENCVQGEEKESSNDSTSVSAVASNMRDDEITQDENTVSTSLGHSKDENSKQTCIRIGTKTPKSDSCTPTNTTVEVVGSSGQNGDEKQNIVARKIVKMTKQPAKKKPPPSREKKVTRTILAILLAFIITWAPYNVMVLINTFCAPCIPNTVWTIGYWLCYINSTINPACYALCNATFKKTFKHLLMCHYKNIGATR

The target in another test is Prothrombin (Homo sapiens, UniProt P00734). It is filed as functional.
Test [4] deals with T3, 5-hydroxytryptamine receptor 1A (Homo sapiens, UniProt P08908).
T3 sequence (P08908 whole entry): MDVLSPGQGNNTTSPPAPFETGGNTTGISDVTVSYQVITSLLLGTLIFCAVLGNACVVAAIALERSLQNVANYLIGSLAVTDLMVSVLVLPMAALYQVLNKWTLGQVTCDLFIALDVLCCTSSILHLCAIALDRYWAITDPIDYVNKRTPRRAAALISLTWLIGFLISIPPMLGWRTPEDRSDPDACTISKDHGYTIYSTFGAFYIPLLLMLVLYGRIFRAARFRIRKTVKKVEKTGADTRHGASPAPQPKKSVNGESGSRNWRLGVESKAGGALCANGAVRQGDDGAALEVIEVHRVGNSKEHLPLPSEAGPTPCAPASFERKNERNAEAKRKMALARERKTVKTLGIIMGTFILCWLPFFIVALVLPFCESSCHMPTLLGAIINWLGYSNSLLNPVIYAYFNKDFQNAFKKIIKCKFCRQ

The target of test [5] is 5-hydroxytryptamine receptor 2B (Homo sapiens, UniProt P41595). In kind it is functional, cell-based.
Test [6] has as its target cGMP-inhibited 3',5'-cyclic phosphodiesterase 3A (Homo sapiens, UniProt Q14432). In kind it is functional.
The target in test [7] is 3',5'-cyclic-AMP phosphodiesterase 4A (Homo sapiens, UniProt P27815). It is filed as functional.
The target in test [8] is T4, Prostaglandin G/H synthase 1 (Homo sapiens, UniProt P23219). It is filed as functional.
T4 sequence (P23219 whole entry): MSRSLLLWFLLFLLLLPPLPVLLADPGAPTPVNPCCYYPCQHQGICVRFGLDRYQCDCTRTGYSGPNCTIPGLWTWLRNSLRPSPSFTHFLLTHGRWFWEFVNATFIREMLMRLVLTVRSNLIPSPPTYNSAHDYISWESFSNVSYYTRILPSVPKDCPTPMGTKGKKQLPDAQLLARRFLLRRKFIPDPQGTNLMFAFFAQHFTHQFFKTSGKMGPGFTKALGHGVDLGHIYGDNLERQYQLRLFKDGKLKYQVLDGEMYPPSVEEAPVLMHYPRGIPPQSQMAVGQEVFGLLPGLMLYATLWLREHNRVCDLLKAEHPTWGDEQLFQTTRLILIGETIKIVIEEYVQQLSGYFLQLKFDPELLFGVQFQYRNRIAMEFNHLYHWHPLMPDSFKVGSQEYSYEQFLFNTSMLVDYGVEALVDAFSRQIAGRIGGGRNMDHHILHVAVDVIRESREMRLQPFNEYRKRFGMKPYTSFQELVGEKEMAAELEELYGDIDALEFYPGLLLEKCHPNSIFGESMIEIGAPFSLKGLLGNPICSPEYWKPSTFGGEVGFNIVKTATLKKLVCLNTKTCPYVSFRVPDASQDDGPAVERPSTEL
For test [9], the target named is T4, Prostaglandin G/H synthase 1. It is filed as functional. This is another data set of the same source.
In test [10] the target is Sodium-dependent noradrenaline transporter (Homo sapiens, UniProt P23975).
Sequence of Sodium-dependent noradrenaline transporter (P23975 whole entry): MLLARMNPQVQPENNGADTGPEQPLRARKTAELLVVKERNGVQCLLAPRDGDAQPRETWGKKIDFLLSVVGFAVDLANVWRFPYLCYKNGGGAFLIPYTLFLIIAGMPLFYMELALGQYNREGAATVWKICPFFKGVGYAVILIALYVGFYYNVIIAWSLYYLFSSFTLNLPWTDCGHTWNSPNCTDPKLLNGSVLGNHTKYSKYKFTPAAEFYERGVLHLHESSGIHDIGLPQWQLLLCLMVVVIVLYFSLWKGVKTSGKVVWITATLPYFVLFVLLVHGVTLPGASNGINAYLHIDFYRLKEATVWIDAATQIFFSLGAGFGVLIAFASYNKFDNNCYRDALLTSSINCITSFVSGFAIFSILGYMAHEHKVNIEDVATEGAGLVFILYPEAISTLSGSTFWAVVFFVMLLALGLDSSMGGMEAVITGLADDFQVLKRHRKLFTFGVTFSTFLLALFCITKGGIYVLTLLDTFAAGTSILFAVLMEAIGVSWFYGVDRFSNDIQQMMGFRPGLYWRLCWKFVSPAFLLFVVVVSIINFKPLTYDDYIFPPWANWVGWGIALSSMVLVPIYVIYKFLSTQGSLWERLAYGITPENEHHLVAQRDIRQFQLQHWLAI
The target of test [11] is Sodium-dependent dopamine transporter (Homo sapiens, UniProt Q01959).
Test [12] addresses T5, Thromboxane A2 receptor (Homo sapiens, UniProt P21731).
T5 sequence (P21731 whole entry): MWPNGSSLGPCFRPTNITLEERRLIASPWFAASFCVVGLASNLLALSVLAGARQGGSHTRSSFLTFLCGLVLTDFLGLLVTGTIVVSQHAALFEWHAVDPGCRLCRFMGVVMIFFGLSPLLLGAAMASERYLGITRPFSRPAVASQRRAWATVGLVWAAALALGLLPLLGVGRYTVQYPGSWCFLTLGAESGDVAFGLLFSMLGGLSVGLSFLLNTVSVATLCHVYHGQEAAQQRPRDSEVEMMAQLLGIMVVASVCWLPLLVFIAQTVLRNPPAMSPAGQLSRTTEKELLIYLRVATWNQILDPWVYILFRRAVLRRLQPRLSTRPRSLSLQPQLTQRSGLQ
In kind it is functional, cell-based.

Test [13] concerns the target T5, Thromboxane A2 receptor. It is filed as functional, cell-based. The source holds these as a separate data set.

Broadly, the AC50 is the midpoint of the concentration-response curve, whichever way the signal moves.
Also: assay procedure not described here.

Sequence of D(3) dopamine receptor (P35462 whole entry): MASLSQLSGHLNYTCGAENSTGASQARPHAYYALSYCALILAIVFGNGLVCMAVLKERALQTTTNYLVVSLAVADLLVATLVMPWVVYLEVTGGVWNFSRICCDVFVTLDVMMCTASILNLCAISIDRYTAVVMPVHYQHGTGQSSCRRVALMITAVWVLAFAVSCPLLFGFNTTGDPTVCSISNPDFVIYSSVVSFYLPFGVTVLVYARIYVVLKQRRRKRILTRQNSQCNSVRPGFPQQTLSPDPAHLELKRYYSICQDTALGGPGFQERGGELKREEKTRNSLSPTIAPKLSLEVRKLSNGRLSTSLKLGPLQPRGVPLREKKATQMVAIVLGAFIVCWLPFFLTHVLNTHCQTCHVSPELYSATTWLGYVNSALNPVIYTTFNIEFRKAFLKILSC

For `CC(=N)N1CC[C@H](SC2=C(C(=O)O)N3C(=O)[C@H]([C@@H](C)O)[C@H]3C2)C1`, the AC50 on Bile salt export pump was > 300 µM; in test [1], 15 µM.

`CC(/C=C1\SC(=S)N(CC(=O)O)C1=O)=C\c1ccccc1`: the values for the AC50 (on Bile salt export pump; in [1]) were 1.6 µM and > 30 µM, respectively.

With `CC1(C)S[C@@H]2[C@H](NC(=O)[C@H](N)c3ccc(O)cc3)C(=O)N2[C@H]1C(=O)O` [AMOXICILLIN], on Bile salt export pump, the AC50 was > 300 µM.

Take `O=C1CN2Cc3c(ccc(Cl)c3Cl)N=C2N1` [ANAGRELIDE]: the half-maximal activity concentration (AC50) on Bile salt export pump was > 300 µM; in [1], > 30 µM.

In the case of `CNCC[C@@H](Oc1ccccc1C)c1ccccc1` [ATOMOXETINE], the AC50 at Bile salt export pump is > 300 µM.

Turning to `CCc1oc2ccccc2c1C(=O)c1cc(Br)c(O)c(Br)c1` [BENZBROMARONE], the concentration at half-maximal activity (AC50) at Bile salt export pump was 3 µM; in [1] it was > 30 µM.

`C=C(C)[C@@H]1CCC(C)=C[C@H]1c1c(O)cc(CCCCC)cc1O` [CANNABIDIOL]: the AC50 on Bile salt export pump came out at 53 µM.

As to `CO/N=C(\C(=O)N[C@@H]1C(=O)N2C(C(=O)O)=C(COC(N)=O)CS[C@H]12)c1ccco1` [CEFUROXIME], the AC50 at Bile salt export pump is > 300 µM; in test [1], > 30 µM.

Turning to `[H]/N=C(\N/C(=N/[H])NCCCCCCNC(=N)NC(=N)Nc1ccc(Cl)cc1)Nc1ccc(Cl)cc1` [CHLORHEXIDINE], the AC50 on Bile salt export pump worked out at 170 µM; in test [1] it was 16.3 µM.

As to `Clc1cccc(Cl)c1N=C1NCCN1` [CLONIDINE], the concentration at half-maximal activity (AC50) on Bile salt export pump was > 300 µM.

For `COC(=O)[C@H](c1ccccc1Cl)N1CCc2sccc2C1` [CLOPIDOGREL], the AC50 came out at 40 µM at Bile salt export pump and 26.1 µM in [1].

As for `CN1C[C@H](C(=O)N[C@]2(C)O[C@@]3(O)[C@@H]4CCCN4C(=O)[C@H](Cc4ccccc4)N3C2=O)C[C@@H]2c3cccc4[nH]cc(c34)C[C@H]21` [DIHYDROERGOTAMINE], the AC50 at Bile salt export pump came to 28 µM; in [1], 10 µM.

With `CNCC[C@H](Oc1cccc2ccccc12)c1cccs1` [DULOXETINE], at Bile salt export pump, the AC50 was > 300 µM.

For `CC1(C)O[C@@H]2C[C@H]3[C@@H]4C[C@H](F)C5=CC(=O)C=C[C@]5(C)[C@H]4[C@@H](O)C[C@]3(C)[C@]2(C(=O)CO)O1` [FLUNISOLIDE], the AC50 is 77 µM at Bile salt export pump and > 30 µM in test [1].

For the compound `Nc1nc(O)c2ncn(COC(CO)CO)c2n1` [GANCICLOVIR], the figures for the AC50 (at Bile salt export pump; in [1]) were > 300 µM and > 30 µM, respectively.

With `C[C@H]1Oc2cc(cnc2N)-c2c(nn(C)c2C#N)CN(C)C(=O)c2ccc(F)cc21` [LORLATINIB], the AC50 was 120 µM on Bile salt export pump and > 30 µM in test [1].

With `Cc1cnc(NC(=O)C2=C(O)c3ccccc3S(=O)(=O)N2C)s1` [MELOXICAM], the AC50 was 160 µM on Bile salt export pump and > 30 µM in test [1].

As for `CC[C@@H](CO)NC(=O)[C@@H]1C=C2c3cccc4[nH]cc(c34)C[C@H]2N(C)C1` [METHYLERGONOVINE], the values for the AC50 (at Bile salt export pump; in [1]) were > 300 µM and > 30 µM, respectively.

`CNCCC=C1c2ccccc2CCc2ccccc21` [NORTRIPTYLINE]: the AC50 is > 300 µM at Bile salt export pump and 2.59 µM in test [1].

Consider `COc1ccnc(C[S+]([O-])c2nc3ccc(OC(F)F)cc3[nH]2)c1OC` (stereo unspecified) [PANTOPRAZOLE], for which the AC50 at Bile salt export pump was 190 µM; in test [1] it was > 30 µM.

On to `COc1ccc(Cc2nccc3cc(OC)c(OC)cc23)cc1OC` [PAPAVERINE], for which the values for the AC50 (at Bile salt export pump; in test [1]) were 46 µM and 5.6 µM, respectively.

Consider `O=C1NC(=O)C(c2ccccc2)(c2ccccc2)N1` [PHENYTOIN], for which the AC50 at Bile salt export pump was > 300 µM.

In the case of `CC(C)C[C@H](CN)CC(=O)O` [PREGABALIN], the AC50 on Bile salt export pump was > 300 µM; in test [1], > 30 µM.

As to `CCOc1cc(CC(=O)N[C@@H](CC(C)C)c2ccccc2N2CCCCC2)ccc1C(=O)O` [REPAGLINIDE], the results for the AC50 (on Bile salt export pump; in test [1]) were 9.33 µM and > 30 µM, respectively.

In the case of `NC(=O)c1ncn([C@@H]2O[C@H](CO)[C@@H](O)[C@H]2O)n1` [RIBAVIRIN], the AC50 was > 300 µM on Bile salt export pump and > 30 µM in test [1].

Consider `O=C(Nc1c(Cl)cncc1Cl)c1ccc(OC(F)F)c(OCC2CC2)c1` [ROFLUMILAST], for which the AC50 on Bile salt export pump was 4 µM; in [1], > 30 µM.

For `CCCN(CCC)CCc1cccc2c1CC(=O)N2` [ROPINIROLE], the AC50 at Bile salt export pump was > 300 µM.

Take `CCCN(CCc1cccs1)[C@H]1CCc2c(O)cccc2C1` [ROTIGOTINE]: the AC50 came to 260 µM on Bile salt export pump and 3.8 µM in test [1].

Turning to `CC[C@H]1OC(=O)[C@H](C)[C@@H](O[C@H]2C[C@@](C)(OC)[C@@H](O)[C@H](C)O2)[C@H](C)[C@@H](O[C@@H]2O[C@H](C)C[C@H](N(C)C)[C@H]2O)[C@](C)(O)C[C@@H](C)/C(=N\OCOCCOC)[C@H](C)[C@@H](O)[C@]1(C)O` [ROXITHROMYCIN], the AC50 on Bile salt export pump is > 300 µM; in [1], > 30 µM.

In the case of `CC(C)N(CCCCOCC(=O)NS(C)(=O)=O)c1cnc(-c2ccccc2)c(-c2ccccc2)n1` [SELEXIPAG], the half-maximal activity concentration (AC50) is 5.7 µM on Bile salt export pump and > 30 µM in [1].

`CC(=O)S[C@@H]1CC2=CC(=O)CC[C@]2(C)[C@H]2CC[C@@]3(C)[C@@H](CC[C@@]34CCC(=O)O4)[C@H]12` [SPIRONOLACTONE]: the AC50 is 26 µM at Bile salt export pump and > 30 µM in test [1].

`CCCCCCCCCCCCCCCC(=O)OC/C=C(C)/C=C/C=C(C)/C=C/C1=C(C)CCCC1(C)C` [VITAMIN A PALMITATE]: the AC50 (on Acetylcholinesterase; in test [2]; in test [3]; at D(1A) dopamine receptor; on D(3) dopamine receptor; at Prothrombin) was > 30 µM throughout. The AC50 (on Histamine H3 receptor; in test [4]; in [5]; in [1]; on Mu-type opioid receptor; in test [6]) was > 30 µM each time. Further, the AC50 (in [7]; in test [8]; in test [9]; in [10]; in [11]; at Thromboxane A2 receptor [12]) was > 30 µM throughout. The AC50 at Thromboxane A2 receptor [13] is > 30 µM.

For `Cc1cc(CC(=O)O)n(C)c1C(=O)c1ccc(Cl)cc1` [ZOMEPIRAC], the AC50 on Bile salt export pump is 72 µM; in test [1], > 30 µM.
